From patent US20240003908A1, “POLYOL BIOMARKERS FOR CONGENITAL DISORDERS OF GLYCOSYLATION” (Mayo Foundation for Medical Education and Research, priority 2020, published 2024)

Experiments:
[1] = test system: blood transferrin glycosylation; experiment: Blood transferrin glycoform ratio analysis by mass spectrometry in patient P1; format: in vivo, human; conditions: for A-oligo/Di-oligo: control ratio ≤ 0.01; for Mono-oligo/Di-oligo: control ratio ≤ 0.06
Procedure: Patient assessment: Prior to the first dose of epalrestat and at 1, 2, 3, 6, 8, 9, 12 months during treatment, concomitant medications and vital signs were recorded and the patient was evaluated using the NPCRS. In addition, blood was drawn for serum chemistry, hematology, and plasma levels of epalrestat. Urine was collected for polyol measurement at baseline and twice over the course of 12 months of therapy.
Safety and efficacy: Safety measures included vital signs, change in CBC, liver function (INR, bilirubin, transaminases, and albumin) in blood, change in liver elastography, and following the pharmacokinetic profile of epalrestat. The efficacy of epalrestat was studied by clinical follow up (physical exam, NPCRS, ICARS), standard laboratory tests, and transferrin glycoform analysis by mass spectrometry.

[2] = test system: PMM-deficient fibroblasts; experiment: Glycoproteomics of PMM-deficient fibroblasts treated with epalrestat or vehicle; format: cell-based, human
Text: Proteomics and glycoproteomics: Cell were scraped in PBS, pH 7.4 and sonicated with a tip sonicator at 40% amplitude for 3 cycles of 10 seconds each. Equal amount of proteins were digested with trypsin as described elsewhere (Mun et al., Anal Chem 92:14466-14475, 2020). The digested peptides were labeled with tandem mass tag (TMT) reagents as per the manufacturer's instructions (ThermoFisher). Labelled samples were pooled, and either size-exclusion chromatography or basic pH reversed-phase fractionation was performed. An aliquot of dried peptides was resuspended in 100 μL of 0.1% formic acid and injected into Superdex peptide 10/300 column (GE Healthcare). Twenty-one (21) early fractions were collected starting at 10 minutes after injection (total run time of 130 minutes) and analyzed by LC-MS/MS as described elsewhere (Mun et al., supra). Another aliquot of total peptides was cleaned up by C18 TopTips (Glygen) and fractionated by bRPLC on a reversed phase C18 column (4.6×100 mm column). Twelve (12) fractions were dried and re-suspended in 0.1% formic acid for LC-MS/MS analysis.
A modification of the LC-MS/MS parameters described by Mun et al. (supra) were used. Specifically, 21 early fractions from SEC and 12 fractions of bRPLC were analyzed by Orbitrap Exploris480 mass spectrometer (Thermo Fisher Scientific) coupled to an EASY-Spray column (Thermo Fisher Scientific). Every run was 130 minutes with a flow rate of 300 nL/minute. The gradient used for separation was: equilibration at 3% solvent B from 0 to 4 minutes, 3% to 10% sol B from 4 to 10 minutes, 10% to 35% sol B from 10.1 to 125 minutes, and 35% to 80% sol B from […]. All experiments were done in DDA mode with the top 15 ions isolated at a window of 0.7 m/z and a default charge state of +2. Charge states ranging from +2 to +7 were considered for MS/MS events. Stepped collision energy was applied to precursors at normalized collision energies of 15, 25, and 40. The MS precursor mass range was set to 375 to 2000 m/z and 100 to 2000 for MS/MS. The automatic gain control for MS and MS/MS were 1×10^6 and 1×10^5 and the injection times to reach AGC were 50 ms and 250 ms, respectively. 60 second dynamic exclusion was applied. Data acquisition was performed with the option of Lock mass (441.1200025 m/z) for all data.
Database searching and analysis: The publicly available software pGlyco Version 2.2.0 was used (Zeng et al., Sci Rep 6:25102, 2016; and Liu et al., Nat Commun 8:438, 2017). A glycan database containing 8,092 entries and Uniprot Human Reviewed protein sequences (20,432 entries) were used as protein sequence fasta files. Cleavage specificity was set to fully tryptic with 2 missed cleavages, and precursor and fragment tolerance were set to 5 and 20 ppm. […] Reporter ion quantification was performed in Proteome Discoverer 2.5 using “reporter ion quantifier” node and Ids were matched with quantitation on a scan-to-scan basis (MS/MS). […]
To compare responders (patients who had more than a 20% increase in enzyme activity after epalrestat treatment) to non-responders (patients who had less than a 20% increase in enzyme activity after epalrestat treatment) and gauge the increase in glycosylation upon epalrestat treatment, linear fold changes (treated/untreated) were calculated for each of these 412 glycopeptides. The fold changes of non-responders were subtracted from the fold changes of the responders, and the fold change difference (delta fold change) was calculated. […]

CC(/C=C1\SC(=S)N(CC(=O)O)C1=O)=C\c1ccccc1 [epalrestat]
A-oligo/Di-oligo ([1]; patient P1, 1st month of epalrestat, prior to first dose 0.005): 0.005 | Mono-oligo/Di-oligo ([1]; patient P1, 1st month of epalrestat, prior to first dose 0.09): 0.14 | A-oligo/Di-oligo ([1]; patient P1, 2nd month): 0.01 | Mono-oligo/Di-oligo ([1]; patient P1, 2nd month): 0.07 | A-oligo/Di-oligo ([1]; patient P1, 3rd month): 0.004 | Mono-oligo/Di-oligo ([1]; patient P1, 3rd month): 0.08 | A-oligo/Di-oligo ([1]; patient P1, 6th month): 0.003 | Mono-oligo/Di-oligo ([1]; patient P1, 6th month): 0.06 | A-oligo/Di-oligo ([1]; patient P1, 8th month): 0.004 | Mono-oligo/Di-oligo ([1]; patient P1, 8th month): 0.06 | A-oligo/Di-oligo ([1]; patient P1, 9th month): 0.004 | Mono-oligo/Di-oligo ([1]; patient P1, 12th month, after dose correction): 0.06 | A-oligo/Di-oligo ([1]; patient P1, 12th month): 0.004 | share of reduced glycopeptides improved post-treatment ([2]; 665 of 1,448): 46% | improved glycopeptides that had reduced glycosylation in PMM-deficient fibroblasts compared to controls ([2]; among the 412 improved): 97 glycopeptides | number of glycopeptides improved post-treatment, becoming similar to controls ([2]; of 1,448 reduced in untreated PMM-deficient fibroblasts): 665 glycopeptides | number of glycopeptides with differential (enhanced) abundance after epalrestat ([2]; paired epalrestat vs vehicle): 412 glycopeptides | ICAM-1 Asn267 glycopeptide (Hex7HexNAc6NeuAc2Fuc5) increase in abundance ([2]; paired epalrestat vs. vehicle analysis): 10%
